Test results published in patent US6461997B1, “Triazole sulfones having herbicidal activity” (Monsanto Technology LLC, priority 1999, dated 2002).

Columns and labels:
POAAN (annual bluegrass) = assay: Pre-plant incorporated (PPI) herbicidal activity, cool season; assay type: in vivo, Poa annua; settings: weed, PPI application
Description: (§1) In another set of tests, the pre-plant incorporated (PPI) activity of compounds of this invention was evaluated on the same species as for the pre-emergence tests described above. In the PPI tests the following procedure, designed to simulate PPI application, was used.
(§2) A pre-prepared topsoil mixture (described above) was placed in a pot and compacted to a depth of 1.0 to 1.25 cm from the top of the pot. Seeds of each of several monocotyledonous and dicotyledonous annual plant species were placed on top of the soil. A sufficient quantity of soil to cover the seeds and level fill the pot was weighed into an open container. A known amount of the test compound was dissolved or suspended in an organic solvent and applied by spraying to this cover soil. The cover soil was thoroughly mixed to distribute the test compound throughout the cover soil, and was then applied as a cover layer over the seeds. Untreated soil was used as a cover layer for control pots. After treatment the plants were placed in a greenhouse where they received 0.64 cm of overhead irrigation. All subsequent watering consisted of a light overhead mist and/or subirrigation as needed for germination and growth. Tables 9 and 10 below relate to warm season plant species which were placed after pre-emergence treatment in a greenhouse with a 30/21° C. day/night temperature regime. Tables 11 and 12 below relates to cool season plant species placed after pre-emergence treatment in a greenhouse or growth chamber with an 18/13° C. day/night temperature regime. Only the compounds of Examples 1, 6, 8, 11, 13 and 15-20 were included in PPI tests.
(§3) Approximately 14 days after planting and treating, the plants were observed and herbicidal efficacy recorded as percent inhibition by comparison with untreated plants.

SINAR (wild mustard) = assay: Pre-emergence herbicidal activity, cool season; assay type: in vivo, Sinapis arvensis; settings: lowest tested rate with 80% or greater inhibition; rates 300, 100, 30, 10 g/ha; about 14 days
Method in brief: (§4)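 GR80 values derive from percent inhibition relative to untreated plants, read roughly 14 days after sowing and pre-emergence soil-surface treatment (compound in 50:50 acetone/water; rates typically 10, 30, 100, 300 g/ha). Warm-season weeds grew at 30/21° C day/night, cool-season ones at 18/13° C; an asterisk marks activity without reaching 80% at the highest rate.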

AVEFA (wild oat) = assay: Post-emergence herbicidal activity, cool season; assay type: in vivo, Avena fatua; settings: abraded plants sprayed at 300, 100, 30 and 10 g/ha; about 14 days after treatment
Description: In another set of tests, the post-emergence activity of compounds of this invention was evaluated on the cool season species listed above. The following procedure was used.
A pre-prepared topsoil mixture (described above) was placed in a pot and compacted to a depth of 1.0 to 1.25 cm from the top of the pot. Seeds of each of several monocotyledonous and dicotyledonous annual plant species were placed on top of the soil. The seeds were covered with a mixture of 50% topsoil and 50% Rediearth™ in sufficient quantity to level-fill the pots. The pots were then placed on a greenhouse bench and subirrigated as needed.
When plants growing from the seeds had emerged and reached a suitable growth stage for post-emergence treatment, typically 9 to 14 days after planting, above-ground parts of the plants were subjected to a pre-treatment involving abrasion to create greater opportunity for foliar uptake of subsequently applied compounds. Abrasion was performed using garnet 200w particles applied with a Sears Craftsman hand-held sandblaster operated at approximately 850 kPa (50 psig) pressure.
A known amount of each test compound dissolved or suspended in an appropriate organic solvent was diluted with a 50:50 mix of acetone and water and applied to the plants by spraying with a standard spray nozzle in a spray volume of […] at a spray pressure of 511 kPa (30 psig). Only the compounds of Examples 1, 8-15 and 17-22 were included in post-emergence tests. Application rates for these compounds were 300, 100, 30 and 10 g/ha. Control plants were abraded but not sprayed.
After treatment the plants were placed in a greenhouse with an 18/13° C. day/night temperature regime and were subsequently watered as needed for growth. Approximately 14 days after treatment, the plants were observed and herbicidal efficacy recorded as percent inhibition by comparison with control plants. GR80 values were assigned for each compound as described above for the pre-emergence tests.

[1] = test system: SORHA (johnsongrass (seedling)); assay: Pre-plant incorporated (PPI) herbicidal activity, warm season; assay type: in vivo, Sorghum halepense; settings: for Percent inhibition SORHA: PPI application; for PPI activity GR80, SORHA: pre-plant incorporated, lowest tested rate with 80% or greater inhibition, about 14 days
Description: as §1, §2, §3

ALOMY (blackgrass) = assay: Pre-emergence herbicidal activity, cool season; assay type: in vivo, Alopecurus myosuroides; settings: GR80 = lowest tested rate (300, 100, 30, 10 g/ha) with 80% or greater inhibition; approx. 14 days after treating; 18/13° C.
Method in brief: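 Pre-emergence soil-surface spray; rates 300/100/30/10 g/ha; acetone:water 50:50 diluent. Warm-season species (PANMI, DIGSA) grown at 30/21 °C, cool-season species (ALOMY, POLCO) at 18/13 °C. Inhibition scored ~14 d after treatment versus untreated controls → GR80.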

AMARE (redroot pigweed) = assay: Pre-plant incorporated (PPI) herbicidal activity, warm season; assay type: in vivo, Amaranthus retroflexus; settings: for Percent inhibition AMARE: PPI application; for PPI activity (GR80) AMARE: pre-plant incorporated, GR80 = lowest tested rate with 80% or greater inhibition, approx. 14 days after treating, 30/21° C.
Description: as §1, §2, §3

PANDI (fall panicum) = assay: as above; assay type: in vivo, Panicum dichotomiflorum; settings: for Percent inhibition PANDI: PPI application; for PPI activity GR80, PANDI: pre-plant incorporated, lowest tested rate with 80% or greater inhibition, about 14 days
Description: as §1, §2, §3

POROL (common purslane) = assay: Pre-emergence herbicidal activity, warm season; assay type: in vivo, Portulaca oleracea; settings: GR80 = lowest tested rate (300, 100, 30, 10 g/ha) with 80% or greater inhibition; approx. 14 days after treating; 30/21° C.
Method in brief: as §4

SMILES | Percent inhibition POAAN (POAAN (annual bluegrass); 10 g/ha) [%] | Percent inhibition POAAN (POAAN (annual bluegrass); 30 g/ha) [%] | Percent inhibition POAAN (POAAN (annual bluegrass); 100 g/ha) [%] | Percent inhibition POAAN (POAAN (annual bluegrass); 300 g/ha) [%] | Percent inhibition POAAN (POAAN (annual bluegrass); 900 g/ha) [%] | Pre-emergence activity GR80, SINAR (SINAR (wild mustard)) [g/ha] | Percent inhibition SORHA ([1]; 30 g/ha) [%] | Percent inhibition SORHA ([1]; 100 g/ha) [%] | Percent inhibition SORHA ([1]; 300 g/ha) [%] | Percent inhibition SORHA ([1]; 900 g/ha) [%] | Pre-emergence activity (GR80) ALOMY (ALOMY (blackgrass)) [g/ha] | Percent inhibition AMARE (AMARE (redroot pigweed); 30 g/ha) [%] | Percent inhibition AMARE (AMARE (redroot pigweed); 100 g/ha) [%] | Percent inhibition AMARE (AMARE (redroot pigweed); 300 g/ha) [%] | Percent inhibition AMARE (AMARE (redroot pigweed); 900 g/ha) [%] | Percent inhibition PANDI (PANDI (fall panicum); 30 g/ha) [%] | Percent inhibition PANDI (PANDI (fall panicum); 100 g/ha) [%] | Percent inhibition PANDI (PANDI (fall panicum); 300 g/ha) [%] | Percent inhibition PANDI (PANDI (fall panicum); 900 g/ha) [%] | Pre-emergence activity (GR80) POROL (POROL (common purslane)) [g/ha] | also measured
CCN(CC)C(=O)n1cnc(S(=O)(=O)C(F)(F)SCC(=O)OC)n1 [Example 11] | 0 | 0 | 0 | 0 | 70 | 100 | 0 | 30 | 80 | 100 | 300 | 90 | 40 | 95 | 100 | 0 | 70 | 99 | 100 | – | Post-emergence activity GR80, AVEFA (AVEFA (wild oat)): [empty]; Percent inhibition SORHA ([1]; 10 g/ha): 0%; PPI activity GR80, SORHA [1]: 300 g/ha; Percent inhibition AMARE (AMARE (redroot pigweed); 10 g/ha): 0%; PPI activity (GR80) AMARE (AMARE (redroot pigweed)): 100 g/ha; Percent inhibition PANDI (PANDI (fall panicum); 10 g/ha): 0%
CCN(CC)C(=O)n1cnc(S(=O)(=O)C(F)(F)C(=O)c2ccccc2)n1 [Example 6] | – | – | – | – | – | 300 | – | – | – | – | 100 | – | – | – | – | – | – | – | – | – | PPI activity GR80, SORHA [1]: 100 g/ha; PPI activity (GR80) AMARE (AMARE (redroot pigweed)): 100 g/ha; PPI activity GR80, PANDI (PANDI (fall panicum)): 100 g/ha
CCN(CC)C(=O)n1cnc(S(=O)(=O)C(F)(F)C(F)F)n1 [Example 16] | 20 | 50 | 65 | 100 | 100 | 100 | 70 | 100 | 100 | 100 | 100 | 100 | 100 | 100 | 100 | 100 | 100 | 100 | 100 | 100 | Percent inhibition SORHA ([1]; 10 g/ha): 0%; PPI activity GR80, SORHA [1]: 10 g/ha; Percent inhibition AMARE (AMARE (redroot pigweed); 10 g/ha): 80%; PPI activity (GR80) AMARE (AMARE (redroot pigweed)): 10 g/ha; Percent inhibition PANDI (PANDI (fall panicum); 10 g/ha): 0%; PPI activity GR80, PANDI (PANDI (fall panicum)): 10 g/ha
CCN(CC)C(=O)n1cnc(S(=O)(=O)C(F)(F)C(F)(F)Br)n1 [Example 4] | – | 95 | 75 | 100 | 100 | 30 | 60 | 100 | 100 | 100 | 300 | 70 | 100 | 100 | 100 | 0 | 100 | 100 | 100 | 100 | –
CCN(CC)C(=O)n1cnc(S(=O)(=O)C(F)(F)F)n1 [Example 2] | – | 80 | 100 | 100 | 100 | 30 | 70 | 80 | 100 | 100 | 100 | 100 | 95 | 100 | 100 | 100 | 100 | 100 | 100 | 100 | –
CCN(CC)C(=O)n1cnc(S(=O)(=O)C(F)(F)Cl)n1 [Example 3] | – | 70 | 100 | 100 | 100 | 300 | 99 | 100 | 100 | 100 | 100 | 90 | 100 | 100 | 100 | 80 | 100 | 100 | 100 | 100 | –
CCN(CC)C(=O)n1cnc(S(=O)(=O)C(F)(F)SCc2ccccc2)n1 [Example 10] | 0 | 10 | 95 | 100 | 100 | 100 | 0 | 50 | 100 | 100 | 300 | 0 | 40 | 100 | 100 | 50 | 100 | 100 | 100 | – | Post-emergence activity GR80, AVEFA (AVEFA (wild oat)): [empty]; Percent inhibition SORHA ([1]; 10 g/ha): 0%; Percent inhibition AMARE (AMARE (redroot pigweed); 10 g/ha): 0%; Percent inhibition PANDI (PANDI (fall panicum); 10 g/ha): 0%
